The results in this text go back to ChEMBL document CHEMBL5465560, “Selectivity Literature for EUbOPEN Chemogenomic Library” (2024).

The target in assay [1] is Receptor-type tyrosine-protein kinase FLT3 (Homo sapiens) (UniProt P36888). Put plainly: (§1) Selectivity interaction (Kinase panel (Z-LYTE Assay)) EUB0001632a FLT3. The note with it: at 10 µM.
The subject of assay [2] is T1, Receptor-type tyrosine-protein kinase FLT3 (Homo sapiens), P36888 [D835Y].
T1 sequence (whole entry): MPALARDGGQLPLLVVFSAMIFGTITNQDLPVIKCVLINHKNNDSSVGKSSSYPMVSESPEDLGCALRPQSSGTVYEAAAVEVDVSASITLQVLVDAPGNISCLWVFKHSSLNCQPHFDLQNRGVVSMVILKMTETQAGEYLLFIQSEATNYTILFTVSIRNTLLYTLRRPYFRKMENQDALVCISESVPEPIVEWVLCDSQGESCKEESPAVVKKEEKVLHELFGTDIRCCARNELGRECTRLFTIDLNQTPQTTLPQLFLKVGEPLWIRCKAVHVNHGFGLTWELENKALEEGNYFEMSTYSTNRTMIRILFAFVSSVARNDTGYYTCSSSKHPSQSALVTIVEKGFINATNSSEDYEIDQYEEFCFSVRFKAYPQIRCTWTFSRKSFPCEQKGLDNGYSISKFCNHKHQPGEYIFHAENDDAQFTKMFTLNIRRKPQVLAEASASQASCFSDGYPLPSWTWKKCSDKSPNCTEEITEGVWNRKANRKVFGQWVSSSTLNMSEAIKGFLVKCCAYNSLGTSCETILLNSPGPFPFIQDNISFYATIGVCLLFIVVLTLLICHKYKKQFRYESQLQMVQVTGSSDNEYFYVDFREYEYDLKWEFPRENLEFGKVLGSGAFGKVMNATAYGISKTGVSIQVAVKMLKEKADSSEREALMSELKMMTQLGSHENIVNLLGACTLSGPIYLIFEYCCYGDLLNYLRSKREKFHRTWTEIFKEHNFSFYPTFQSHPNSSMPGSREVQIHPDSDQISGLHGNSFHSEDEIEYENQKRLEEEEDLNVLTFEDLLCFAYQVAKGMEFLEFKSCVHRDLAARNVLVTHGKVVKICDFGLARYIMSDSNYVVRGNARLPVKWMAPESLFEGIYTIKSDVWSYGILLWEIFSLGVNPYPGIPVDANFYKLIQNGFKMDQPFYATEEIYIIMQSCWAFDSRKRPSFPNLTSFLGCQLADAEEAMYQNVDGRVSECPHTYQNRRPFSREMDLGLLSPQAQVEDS
Described as §1. The note with it: at 10 µM.

Assay [3] deals with T2, Serine/threonine-protein kinase Nek5 (Homo sapiens) (UniProt Q6P3R8).
T2 sequence (whole entry): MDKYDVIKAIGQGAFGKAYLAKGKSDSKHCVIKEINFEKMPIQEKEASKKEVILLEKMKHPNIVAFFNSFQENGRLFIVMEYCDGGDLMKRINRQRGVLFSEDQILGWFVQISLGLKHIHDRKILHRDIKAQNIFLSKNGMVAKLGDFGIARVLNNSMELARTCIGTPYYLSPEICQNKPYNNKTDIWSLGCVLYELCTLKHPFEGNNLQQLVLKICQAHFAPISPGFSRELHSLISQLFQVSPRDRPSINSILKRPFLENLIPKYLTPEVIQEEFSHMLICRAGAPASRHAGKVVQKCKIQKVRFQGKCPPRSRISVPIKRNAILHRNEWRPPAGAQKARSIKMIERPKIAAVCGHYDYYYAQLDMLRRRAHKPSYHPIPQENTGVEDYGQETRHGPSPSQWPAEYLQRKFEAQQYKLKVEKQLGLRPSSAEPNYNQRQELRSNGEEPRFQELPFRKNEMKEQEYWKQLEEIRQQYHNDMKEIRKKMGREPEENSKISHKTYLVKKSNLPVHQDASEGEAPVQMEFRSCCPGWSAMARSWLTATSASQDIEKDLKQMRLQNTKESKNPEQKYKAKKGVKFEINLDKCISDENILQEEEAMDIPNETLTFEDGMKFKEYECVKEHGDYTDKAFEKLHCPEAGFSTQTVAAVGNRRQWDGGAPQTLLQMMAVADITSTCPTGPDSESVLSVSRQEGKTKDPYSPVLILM
Put plainly: Selectivity interaction (KinomeScan (DiscoverX)) EUB0000595a NEK5. The note with it: at 10 µM.

For assay [4], the target named is T3, Cyclin-dependent kinase-like 5 (Homo sapiens) (UniProt O76039).
T3 sequence (whole entry): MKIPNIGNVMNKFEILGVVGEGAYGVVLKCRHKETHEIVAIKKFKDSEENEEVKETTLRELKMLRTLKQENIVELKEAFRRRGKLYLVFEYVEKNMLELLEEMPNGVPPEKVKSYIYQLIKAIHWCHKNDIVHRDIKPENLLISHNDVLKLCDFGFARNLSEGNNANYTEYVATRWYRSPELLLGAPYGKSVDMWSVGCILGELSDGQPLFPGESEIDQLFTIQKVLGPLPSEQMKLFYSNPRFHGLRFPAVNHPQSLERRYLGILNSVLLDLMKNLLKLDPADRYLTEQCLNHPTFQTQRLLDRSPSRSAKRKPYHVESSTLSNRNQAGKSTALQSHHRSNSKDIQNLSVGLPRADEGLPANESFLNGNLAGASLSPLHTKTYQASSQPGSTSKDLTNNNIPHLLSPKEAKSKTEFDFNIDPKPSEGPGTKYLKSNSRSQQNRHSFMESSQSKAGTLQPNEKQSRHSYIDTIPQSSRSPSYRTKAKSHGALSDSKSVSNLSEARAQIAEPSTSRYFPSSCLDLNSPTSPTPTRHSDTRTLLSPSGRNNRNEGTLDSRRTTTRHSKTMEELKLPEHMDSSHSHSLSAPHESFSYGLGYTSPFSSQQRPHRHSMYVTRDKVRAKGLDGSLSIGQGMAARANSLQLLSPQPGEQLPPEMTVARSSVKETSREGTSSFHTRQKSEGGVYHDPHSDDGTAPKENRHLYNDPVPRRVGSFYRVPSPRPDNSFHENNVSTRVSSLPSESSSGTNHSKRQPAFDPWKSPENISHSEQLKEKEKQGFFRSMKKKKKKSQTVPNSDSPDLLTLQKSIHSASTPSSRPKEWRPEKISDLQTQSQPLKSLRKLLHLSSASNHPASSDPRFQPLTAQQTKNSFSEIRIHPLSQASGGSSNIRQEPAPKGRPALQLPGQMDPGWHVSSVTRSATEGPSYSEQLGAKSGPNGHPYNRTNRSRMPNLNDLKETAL
Put plainly: Selectivity interaction (KinomeScan (DiscoverX)) EUB0000607a CDKL5. The note with it: at 10 µM.

In assay [5] the target is Mitogen-activated protein kinase 9 (Homo sapiens, UniProt P45984). As to the kind of experiment: Selectivity interaction (Ambit KINOMEscan and KiNATiv profiling in Jurkat cells) EUB0000090b MAPK9. Type of assay: cell-based. The note with it: at 1 µM.
The target in assay [6] is Platelet-derived growth factor receptor alpha (Homo sapiens, UniProt P16234). As to the kind of experiment: Selectivity interaction (KinomeScan (DiscoverX)) EUB0001049a PDGFRA. The note with it: at 1 µM.

SMILES strings stand for the structures.

Platelet-derived growth factor receptor alpha, sequence (P16234 whole entry): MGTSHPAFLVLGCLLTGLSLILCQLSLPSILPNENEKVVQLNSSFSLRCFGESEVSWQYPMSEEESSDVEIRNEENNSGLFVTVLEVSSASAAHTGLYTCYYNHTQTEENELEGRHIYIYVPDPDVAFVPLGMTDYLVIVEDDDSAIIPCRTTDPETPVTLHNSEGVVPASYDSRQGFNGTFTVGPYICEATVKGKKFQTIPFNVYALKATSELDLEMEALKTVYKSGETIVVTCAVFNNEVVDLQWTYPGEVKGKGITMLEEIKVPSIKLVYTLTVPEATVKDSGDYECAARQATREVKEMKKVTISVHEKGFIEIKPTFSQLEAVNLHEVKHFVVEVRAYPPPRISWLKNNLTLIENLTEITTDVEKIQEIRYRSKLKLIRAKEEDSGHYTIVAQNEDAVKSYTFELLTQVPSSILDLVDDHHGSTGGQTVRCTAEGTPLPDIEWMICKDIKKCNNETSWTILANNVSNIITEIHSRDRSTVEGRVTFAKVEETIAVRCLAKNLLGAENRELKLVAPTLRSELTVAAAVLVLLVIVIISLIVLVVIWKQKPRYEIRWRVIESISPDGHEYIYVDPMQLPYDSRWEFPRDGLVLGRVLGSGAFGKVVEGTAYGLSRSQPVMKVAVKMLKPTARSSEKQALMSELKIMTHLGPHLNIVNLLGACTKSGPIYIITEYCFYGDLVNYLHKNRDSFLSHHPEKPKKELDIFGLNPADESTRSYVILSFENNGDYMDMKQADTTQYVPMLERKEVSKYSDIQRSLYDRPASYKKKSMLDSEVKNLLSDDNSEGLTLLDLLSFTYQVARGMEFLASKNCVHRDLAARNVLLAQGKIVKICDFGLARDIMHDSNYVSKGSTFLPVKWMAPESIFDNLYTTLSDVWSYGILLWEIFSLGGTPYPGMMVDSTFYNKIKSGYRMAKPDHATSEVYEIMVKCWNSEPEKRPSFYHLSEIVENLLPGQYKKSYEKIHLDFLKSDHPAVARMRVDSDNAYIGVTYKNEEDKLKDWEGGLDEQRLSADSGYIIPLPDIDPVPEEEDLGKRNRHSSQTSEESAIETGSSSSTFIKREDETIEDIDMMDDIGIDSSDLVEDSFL
Mitogen-activated protein kinase 9, sequence (P45984 whole entry, looked up): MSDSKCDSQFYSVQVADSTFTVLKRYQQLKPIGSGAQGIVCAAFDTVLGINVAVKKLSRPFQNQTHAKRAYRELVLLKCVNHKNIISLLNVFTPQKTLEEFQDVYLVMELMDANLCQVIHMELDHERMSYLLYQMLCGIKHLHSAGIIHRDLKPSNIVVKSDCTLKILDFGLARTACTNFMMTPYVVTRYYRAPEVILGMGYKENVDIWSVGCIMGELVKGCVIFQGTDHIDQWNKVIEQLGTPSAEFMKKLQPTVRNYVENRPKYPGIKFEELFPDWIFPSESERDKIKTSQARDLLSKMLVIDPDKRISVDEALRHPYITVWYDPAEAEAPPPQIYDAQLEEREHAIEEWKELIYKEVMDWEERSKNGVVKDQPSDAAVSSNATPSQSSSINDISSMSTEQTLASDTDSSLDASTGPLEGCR

As for `Cn1cc(-n2cnc3c(NCc4nc5cc(Cl)c(Cl)cc5[nH]4)nc(N4CCOCC4)nc32)cn1`, the % of control amounted to 34.1% in assay [1] and 33.4% in assay [2].
Consider `COCC(=O)NC/C=C/c1ccc2ncnc(Nc3ccc(Oc4ccc(C)nc4)c(C)c3)c2c1` [CP-724714], for which the % of control in assay [3] was found to be 100%.
Regarding `CNC(=O)Nc1ccc(-c2nc(N3CC4CCC(C3)O4)c3cnn(C4CCC5(CC4)OCCO5)c3n2)cc1`, in assay [4], the % of control came out at 79%.
As to `CN(C)C/C=C/C(=O)Nc1ccc(C(=O)N2CCCC(Nc3ncc(Cl)c(-c4c[nH]c5ccccc45)n3)C2)cc1` (stereo unspecified), in assay [5], the % of control is 0.55%.
`COc1cc(Nc2nc(C)cc(-c3cnn4nc(OC)ccc34)n2)cc(C(F)(F)F)c1` yielded a % of control in assay [6] of 69%.
